Data reported in patent US11180485B2, “Diaryl-azole compound and formulation for controlling harmful organism” (Nippon Soda Co., Ltd., priority 2016, dated 2021).

Legend:
Culex pipiens molestus = experiment: Test Example 10: efficacy test against Culex pipiens molestus; assay type: in vivo; details: 24 h, 20 first-instar larvae in 100 mL, after one day, read-out: mortality rate against first-instar larvae of Culex pipiens molestus (converted)
Experimental: (§1) 5 parts of the compound of the present invention, 93.6 parts of dimethylformamide and 1.4 parts of polyoxyethylene alkyl aryl ether were mixed and dissolved to prepare Emulsion (1) including 5% of an active ingredient.
(§2) An insect mortality rate and a controlling rate were calculated by the numerical equations shown below. Insect mortality rate (%)=(Number of dead insects)/(Number of sample insects)×100 Controlling rate={1−(Nt)/(Nc)}×100
Emulsion (1) was diluted with water so that the concentration of the compound of the present invention was 10 ppm, to prepare a chemical liquid for testing. 20 first-instar larvae of Culex pipiens molestus were released in 100 mL of the chemical liquid. After one day, the number of dead insects was counted, and the insect mortality rate was calculated. The test was performed twice.

Plutella xylostella = experiment: Test Example 3: efficacy test against Plutella xylostella (cabbage leaf soak); assay type: in vivo; details: 72 h, cabbage leaves soaked 30 seconds, second-instar larvae, 3 days after inoculation, read-out: mortality rate against Plutella xylostella
Experimental: as §1, §2
Emulsion (1) was diluted with water so that the concentration of the compound of the present invention was 125 ppm. Cabbage leaves were soaked in the diluted liquid for 30 seconds. Subsequently, the cabbage leaves were put on Petri dishes, followed by inoculating 5 second-instar larvae of Plutella xylostella. The Petri dishes were placed in a thermostatic chamber at a temperature of 25° C. and humidity of 60%. Mortality was investigated 3 days after inoculation, and the insect mortality rate was calculated. The test was performed twice.

Aphis craccivora = experiment: Test Example 4: efficacy test against Aphis craccivora (spray on black-eyed pea plants); assay type: in vivo; details: in Vigna unguiculata, 96 h, sprayed on black-eyed pea plants with nymphs, 4 days after spraying, read-out: mortality rate against Aphis craccivora
Experimental: as §1, §2
Black-eyed pea plants were raised in No. 3 pots and the primary leaves were inoculated with nymphs of Aphis craccivora. Emulsion (1) was diluted with water so that the concentration of the compound of the present invention was 125 ppm. Subsequently, the aforementioned diluted liquid was sprayed on the black-eyed pea plants on which the nymphs of Aphis craccivora were parasitic. The aforementioned black-eyed pea plants were then placed in a thermostatic chamber with a temperature of 25° C. and humidity of 60%. Mortality was investigated 4 days after spraying was carried out, and the insect mortality rate of Aphis craccivora was calculated. The test was performed twice.

Nilaparvata lugens = experiment: Test Examples 6 and 13: efficacy test against Nilaparvata lugens (rice seedling soak); assay type: in vivo; details: 168 h, rice seedlings soaked 30 seconds, second-instar larvae, 7 days after inoculation, read-out: mortality rate against Nilaparvata lugens
Experimental: as §1, §2
(§3) Emulsion (1) was diluted with water so that the concentration of the compound of the present invention was 125 ppm. Rice seedlings were soaked in the diluted liquid for 30 seconds, and subjected to air-drying. Subsequently, the rice seedlings were placed in plastic cases, followed by inoculating 5 second-instar larvae of Nilaparvata lugens. The plastic cases were placed in a thermostatic chamber at a temperature of 25° C. and humidity of 65%. Mortality was investigated 7 days after inoculation, and the insect mortality rate was calculated. The test was performed twice.
as §3, with “8” for “125”

Phyllotreta striolata = experiment: Test Examples 7 and 14: efficacy test against Phyllotreta striolata (spray on bok-choi seedlings); assay type: in vivo; details: 168 h, sprayed on bok-choi seedlings, adults, 7 days after inoculation, read-out: mortality rate against adult Phyllotreta striolata
Experimental: as §1, §2
(§4) Emulsion (1) was diluted with water so that the concentration of the compound of the present invention was 125 ppm, to prepare a diluted liquid for testing. The aforementioned diluted liquid was sprayed on bok-choi seedlings (7th major leaf-development period) planted in No. 3 pots. After the bok-choi seedlings were subjected to air-drying, the seedlings were placed in plastic cups, followed by inoculating 10 adult Phyllotreta striolata. The plastic cups were stored in a thermostatic chamber at a temperature of 25° C. and humidity of 65%. Mortality was investigated 7 days after inoculation, and the insect mortality rate was calculated. The test was performed twice.
as §4, with “8” for “125”

## CCS(=O)(=O)c1cc(C(F)(F)F)ccc1-c1nc(Br)c(-n2cc(C(F)(F)F)cn2)n1C [b-2]
other
  melting point: 176 to 178 °C

## CCSc1cnc(-n2cncn2)nc1-c1ncc(-c2ccc(OC(F)(F)F)cc2)n1C [compound 2, 5-(ethylthio)-4-(1-methyl-5-(4-(trifluoromethoxy)phenyl)-1H-imidazol-2-yl)-2-(1H-1,2,4-triazol-1-yl)pyrimidine]
Culex pipiens molestus
  mortality at 10 ppm: 100%

## CCS(=O)(=O)c1cnc(-n2cncn2)nc1-c1ncc(-c2ccc(OC(F)(F)F)cc2)n1C [Compound No. 3, 5-(ethylsulfonyl)-4-(1-methyl-5-(4-(trifluoromethoxy)phenyl)-1H-imidazol-2-yl)-2-(1H-1,2,4-triazol-1-yl)pyrimidine]
Culex pipiens molestus
  mortality at 10 ppm: 100%

## CCS(=O)(=O)c1cnc(-c2ncccn2)nc1-c1ncc(-c2ccc(OC(F)(F)F)cc2)n1C [Compound No. 7, 5-(ethylsulfonyl)-4-(1-methyl-5-(4-(trifluoromethoxy)phenyl)-1H-imidazol-2-yl)-2,2′-bipyrimidine]
Plutella xylostella
  mortality at 125 ppm: ≥ 80%
Aphis craccivora
  mortality at 125 ppm: ≥ 80%
Nilaparvata lugens; 8 ppm
  mortality at 8 ppm: ≥ 80%
Nilaparvata lugens
  mortality at 125 ppm: ≥ 80%
Phyllotreta striolata; 8 ppm
  mortality at 8 ppm: ≥ 80%
Phyllotreta striolata
  mortality at 125 ppm: ≥ 80%

## CCS(=O)(=O)c1ccc(-n2cnc(C)n2)nc1-c1ncc(-c2ccc(OC(F)(F)F)cc2)n1C [Compound No. a-8, 3-(ethylsulfonyl)-6-(3-methyl-1H-1,2,4-triazol-1-yl)-2-(1-methyl-5-(4-(trifluoromethoxy)phenyl)-1H-imidazol-2-yl)pyridine]
Plutella xylostella
  mortality at 125 ppm: ≥ 80%
Aphis craccivora
  mortality at 125 ppm: ≥ 80%
Nilaparvata lugens
  mortality at 125 ppm: ≥ 80%
Phyllotreta striolata
  mortality at 125 ppm: ≥ 80%
Culex pipiens molestus
  mortality at 10 ppm: 100%

## CCS(=O)(=O)c1cc(C(F)(F)F)ccc1-c1nc(Br)c(-n2cc(I)cn2)n1C [b-1]
other
  melting point: 202 to 204 °C
